Literature values, collected in PubChem BioAssay AID1259409 (Chemical Carcinogenesis Research Information System (CCRIS), 2018).

Test system: rodent chemically induced tumor inhibition, incidence and multiplicity
Experiment: CCRIS tumor inhibitor studies
Conditions: Dose [Inhibitor]: 0, Route [Inhibitor]: ORAL, Promoter: NONE USED

For Cc1c(-c2cnccn2)ssc1=S, the “tumour outcome (control, treated, inhibition, significance)” value (Carcinogen: 2-AMINO-1-METHYL-6-PHENYLIMIDAZO[4,5-B]PYRIDINE, 105650-23-5, 200 PPM IN DIET FOR 52 WK (STUDY DURATION: 52 WK), Species: RAT, Strain/Sex: F344/MALE, Target Tissue: Type of Lesion: LYMPHATIC SYSTEM: LYMPHOMA, Dose [Carcinogen]: 400 PPM IN DIET FOR 10 WK THEN 200 PPM TO WK 14 FOLLOWED BY 100 PPM FOR DURATION OF STUDY) is given as 75%, 6%, 92%, not calculated, the “tumour outcome (control, treated, inhibition, significance)” value (Carcinogen: 2-AMINO-1-METHYL-6-PHENYLIMIDAZO[4,5-B]PYRIDINE, 105650-23-5, 400 PPM IN DIET FOR 52 WK (STUDY DURATION: 52 WK), Species: RAT, Strain/Sex: F344/MALE, Target Tissue: Type of Lesion: LYMPHATIC SYSTEM: LYMPHOMA, Dose [Carcinogen]: 400 PPM IN DIET FOR 10 WK THEN 200 PPM TO WK 14 FOLLOWED BY 100 PPM FOR DURATION OF STUDY) is given as 75%, 0%, 100%, not calculated and the “tumour outcome (control, treated, inhibition, significance)” value (Carcinogen: 4-(METHYLNITROSAMINO)-1-(3-PYRIDYL)-1-BUTANONE, 64091-91-4, 0.25 G/KG DIET (EFFECTIVE DOSE 3.31 UMOL/D) BEGINNING 2 WK PRIOR TO CARCINOGEN TREATMENT AND CONTINUING FOR DURATION, Species: MOUSE, Strain/Sex: STRAIN-A/FEMALE, Target Tissue: Type of Lesion: LUNG: TUMORS, Dose [Carcinogen]: 9.0-9.2 MG/MOUSE (TOTAL DOSE) IN DRINKING WATER ADMINISTERED OVER 7 WK) is given as 28/28 (100%), 25/25 (100%), 0%, not significant. For the same compound, the “tumour outcome (control, treated, inhibition, significance)” value (Carcinogen: AZOXYMETHANE, 25843-45-2, 200 PPM IN DIET 7 WK PRIOR TO CARCINOGEN TREATMENT AND CONTINUING FOR STUDY DURATION (STUDY DURATION: 59 WK), Species: RAT, Strain/Sex: F344/MALE, Target Tissue: Type of Lesion: COLON: ADENOCARCINOMA, Dose [Carcinogen]: 15 MG/KG 1/WK FOR 2 WK) was 72%, 47%, 35%, p<0.05, the “tumour outcome (control, treated, inhibition, significance)” value (Carcinogen: AZOXYMETHANE, 25843-45-2, 200 PPM IN DIET 7 WK PRIOR TO CARCINOGEN TREATMENT AND CONTINUING FOR STUDY DURATION (STUDY DURATION: 59 WK), Species: RAT, Strain/Sex: F344/MALE, Target Tissue: Type of Lesion: COLON: ADENOMA, Dose [Carcinogen]: 15 MG/KG 1/WK FOR 2 WK) was 14%, 6%, 57%, p<0.05 and the “tumour outcome (control, treated, inhibition, significance)” value (Carcinogen: AZOXYMETHANE, 25843-45-2, 200 PPM IN DIET 7 WK PRIOR TO CARCINOGEN TREATMENT AND CONTINUING FOR STUDY DURATION (STUDY DURATION: 59 WK), Species: RAT, Strain/Sex: F344/MALE, Target Tissue: Type of Lesion: SMALL INTESTINE: ADENOCARCINOMA, Dose [Carcinogen]: 15 MG/KG 1/WK FOR 2 WK) was 50%, 16%, 68%, p<0.001. For the same compound, the “tumour outcome (control, treated, inhibition, significance)” value (Carcinogen: AZOXYMETHANE, 25843-45-2, 200 PPM IN DIET BEGINNING 2 WK PRIOR TO CARCINOGEN TREATMENT AND CONTINUING FOR 3 D POST LAST CARCINOGEN DOSE FOLLOWE, Species: RAT, Strain/Sex: F344/MALE, Target Tissue: Type of Lesion: COLON: INVASIVE ADENOCARCINOMA, Dose [Carcinogen]: 15 MG/KG 1/WK FOR 2 WK) was 33%, 3%, 91%, p<0.001, the “tumour outcome (control, treated, inhibition, significance)” value (Carcinogen: AZOXYMETHANE, 25843-45-2, 200 PPM IN DIET BEGINNING 2 WK PRIOR TO CARCINOGEN TREATMENT AND CONTINUING FOR 3 D POST LAST CARCINOGEN DOSE FOLLOWE, Species: RAT, Strain/Sex: F344/MALE, Target Tissue: Type of Lesion: COLON: NONINVASIVE ADENOCARCINOMA, Dose [Carcinogen]: 15 MG/KG 1/WK FOR 2 WK) was 53%, 43%, 19%, not significant and the “tumour outcome (control, treated, inhibition, significance)” value (Carcinogen: AZOXYMETHANE, 25843-45-2, 200 PPM IN DIET BEGINNING 2 WK PRIOR TO CARCINOGEN TREATMENT AND CONTINUING FOR 3 D POST LAST CARCINOGEN DOSE FOLLOWE, Species: RAT, Strain/Sex: F344/MALE, Target Tissue: Type of Lesion: SMALL INTESTINE: INVASIVE ADENOCARCINOMA, Dose [Carcinogen]: 15 MG/KG 1/WK FOR 2 WK) was 22%, 7%, 68%, p<0.05. The “tumour outcome (control, treated, inhibition, significance)” value (Carcinogen: AZOXYMETHANE, 25843-45-2, 200 PPM IN DIET BEGINNING 2 WK PRIOR TO CARCINOGEN TREATMENT AND CONTINUING FOR 3 D POST LAST CARCINOGEN DOSE FOLLOWE, Species: RAT, Strain/Sex: F344/MALE, Target Tissue: Type of Lesion: SMALL INTESTINE: NONINVASIVE ADENOCARCINOMA, Dose [Carcinogen]: 15 MG/KG 1/WK FOR 2 WK) was 6%, 3%, 50%, not significant, the “tumour outcome (control, treated, inhibition, significance)” value (Carcinogen: AZOXYMETHANE, 25843-45-2, 200 PPM IN DIET BEGINNING 3 D POST LAST CARCINOGEN DOSE AND CONTINUING FOR DURATION OF STUDY (STUDY DURATION: 56 WK), Species: RAT, Strain/Sex: F344/MALE, Target Tissue: Type of Lesion: COLON: INVASIVE ADENOCARCINOMA, Dose [Carcinogen]: 15 MG/KG 1/WK FOR 2 WK) was 33%, 0%, 100%, p<0.001 and the “tumour outcome (control, treated, inhibition, significance)” value (Carcinogen: AZOXYMETHANE, 25843-45-2, 200 PPM IN DIET BEGINNING 3 D POST LAST CARCINOGEN DOSE AND CONTINUING FOR DURATION OF STUDY (STUDY DURATION: 56 WK), Species: RAT, Strain/Sex: F344/MALE, Target Tissue: Type of Lesion: COLON: NONINVASIVE ADENOCARCINOMA, Dose [Carcinogen]: 15 MG/KG 1/WK FOR 2 WK) was 53%, 73%, -38%, not significant. For the same compound, the “tumour outcome (control, treated, inhibition, significance)” value (Carcinogen: AZOXYMETHANE, 25843-45-2, 200 PPM IN DIET BEGINNING 3 D POST LAST CARCINOGEN DOSE AND CONTINUING FOR DURATION OF STUDY (STUDY DURATION: 56 WK), Species: RAT, Strain/Sex: F344/MALE, Target Tissue: Type of Lesion: SMALL INTESTINE: INVASIVE ADENOCARCINOMA, Dose [Carcinogen]: 15 MG/KG 1/WK FOR 2 WK) was 22%, 20%, 9%, not significant, the “tumour outcome (control, treated, inhibition, significance)” value (Carcinogen: AZOXYMETHANE, 25843-45-2, 200 PPM IN DIET BEGINNING 3 D POST LAST CARCINOGEN DOSE AND CONTINUING FOR DURATION OF STUDY (STUDY DURATION: 56 WK), Species: RAT, Strain/Sex: F344/MALE, Target Tissue: Type of Lesion: SMALL INTESTINE: NONINVASIVE ADENOCARCINOMA, Dose [Carcinogen]: 15 MG/KG 1/WK FOR 2 WK) was 6%, 3%, 50%, not significant and the “tumour outcome (control, treated, inhibition, significance)” value (Carcinogen: AZOXYMETHANE, 25843-45-2, 200 PPM IN DIET FOR 56 WK BEGINNING 2 WK PRIOR TO CARCINOGEN TREATMENT (STUDY DURATION: 56 WK), Species: RAT, Strain/Sex: F344/MALE, Target Tissue: Type of Lesion: COLON (DISTAL): TUMOR, Dose [Carcinogen]: 15 MG/KG 1/WK FOR 2 WK) was 47%, 28%, 40%, not significant. The “tumour outcome (control, treated, inhibition, significance)” value (Carcinogen: AZOXYMETHANE, 25843-45-2, 200 PPM IN DIET FOR 56 WK BEGINNING 2 WK PRIOR TO CARCINOGEN TREATMENT (STUDY DURATION: 56 WK), Species: RAT, Strain/Sex: F344/MALE, Target Tissue: Type of Lesion: COLON (PROXIMAL): TUMOR, Dose [Carcinogen]: 15 MG/KG 1/WK FOR 2 WK) was 39%, 30%, 23%, not significant.
